Where a name gives a salt, the structure may show the parent alone. Read-outs that look alike come from different tables or passages of the source.

In experiment [1] the test system is NCI-H146 cells (human small-cell lung cancer cell lines). As to the kind of experiment: Cell-growth inhibition test: NCI-H146 cells. The class given is cell-based. The method, boiled down: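 NCI-H146 small-cell lung cancer cells were cultured with compound or DMSO for 10 days at 37°C, 5% CO2. Viability read by CellTiter-Glo luminescence; growth rate (%) = treated/DMSO luminescence × 100.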

Experiment [2] relates to NCI-H1417 cells (human small-cell lung cancer cell lines). The experiment can be described thus: cells. The settings on record: NCI-H1417, read-out: Cell-Growth Inhibition Test: NCI-H1417 Cells IC50 (nM).
Procedure: (§1) Under the following conditions, an in vitro cell-growth inhibition test was performed with respect to HEL cells (human acute myelocytic leukemia cell lines), NCI-H1417 cells (human small-cell lung cancer cell lines), and NCI-H146 cells (human small-cell lung cancer cell lines).
(§2) The cells with the compound of the present invention or with dimethylsulfoxide alone were cultured at 37° C. in a 5% carbon-dioxide-containing incubator for 5 days (HEL cells) or 10 days (NCI-H1417 cells and NCI-H146 cells). After culture, the plate was allowed to stand at room temperature for 30 minutes, and 100 μL of the supernatant was removed from each well to leave 100 μL of the cell culture solution. To each well containing the remaining 100 μL of the cell culture solution, the same amount of CellTiter-Glo 2.0 Assay (Promega, Cat #: G9242) was added. The microplate was shaken with a plate mixer for 1 minute and then allowed to stand in a dark place for 10 minutes. Thereafter, the luminescence intensity of viable cells in each well was measured using a microplate reader (PerkinElmer, EnSpire). […] Cell growth rate (%)=T/C×100 T: The luminescence intensity in a well to which the compound of the present invention was added (count per second) C: The luminescence intensity in a well to which dimethylsulfoxide alone was added (count per second)
The next experiment deals with T1, human LSD1 protein (Homo sapiens, UniProt O60341).
T1 construct: purchased Abcam ab80379
The experiment can be described thus: Measurement of LSD1 inhibitory activity (in vitro). It counts as biochemical. As for the experimental part: To measure the inhibitory activity, first, the compound of the present invention was serially diluted in dimethylsulfoxide (DMSO). Sequentially, the solution of the compound of the present invention in DMSO (final concentration of DMSO: 5%) and human LSD1 protein (Abcam, ab80379) were added to a reaction buffer (25 mM Tris-HCl (pH 7.5), 50 mM KCl, 2 mM CHAPS, 1 mM DTT, 0.02% BSA). The mixture was preincubated at 25° C. for 30 minutes. […] Tranylcypromine (final concentration: 3 mM) was then added thereto to terminate the reaction.

Experiment [3] relates to HEL cells (human acute myelocytic leukemia cell lines). The settings on record: read-out: Cell-Growth Inhibition Test: HEL Cells IC50.
Procedure: as §1, §2
For experiment [4], the system named is NCI-H1417 cells (human small-cell lung cancer cell lines). Conditions: read-out: Cell-Growth Inhibition Test: NCI-H1417 Cells IC50.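 Note: growth of NCI-H1417 cells over 10 days at 37 °C, read as viable-cell luminescence by CellTiter-Glo 2.0, expressed as % of DMSO-only control wells.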
Procedure: as §1, §2
Experiment [5] has as its system HEL cells (human acute myelocytic leukemia cell lines). As to the kind of experiment: cells. The settings on record: read-out: Cell-Growth Inhibition Test: HEL Cells IC50 (nM).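 Note: viable cell count by CellTiter-Glo 2.0 luminescence after 5 days of culture at 37 °C, growth expressed relative to DMSO-only wells as 100%.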
Procedure: as §1, §2
Setting [6] is: Homo sapiens, NCI-H146, read-out: Cell-Growth Inhibition Test: NCI-H146 Cells IC50.
Setting [7] is: NCI-H146 cells, read-out: Cell-Growth Inhibition Test: NCI-H146 Cells IC50.
[8] abbreviates: human LSD1 protein, H3K4 (Me1)-biotin-labeled peptide 200 nM, preincubated 30 minutes, read-out: LSD1 inhibitory activity IC50.
Where [9] appears, read: Homo sapiens, NCI-H146, read-out: Cell-Growth Inhibition Test: NCI-H146 Cells IC50 (nM).

`Cn1cc(C(N)=O)c2cc(-c3ccc(C(=O)N4C5CCC4C(N)C5)cc3-c3ccc(C#N)c(F)c3)c(F)cc21` [Example 236, 5-(5-((1S,2S,4R)-rel-2-amino-7-azabicyclo[2.2.1]heptane-7-carbonyl)-4′-cyano-3′-fluoro-[1,1′-biphenyl]-2-yl)-6-fluoro-1-methyl-1H-indole-3-carboxyamide-isomer-X]: the results for the 50% inhibitory concentration (IC50) (in experiment [1] (setting [6]); in experiment [2]; at human LSD1 protein) were 28.5 nM, 11 nM and 0.28 nM, respectively.
As to “3-fluoro-2′-(6-fluoro-1-(2-hydroxy-2-methylpropyl)-1H-indazol-5-yl)-5′-(2,7-diazaspiro[3.4]octane-6-carbonyl)-[1,1′-biphenyl]-4-carbonitrile [Example 199]”, the results for the half-inhibitory concentration (IC50) in experiment [1] (setting [7]), in experiment [3] and in experiment [4] were 5.45 nM, 22 nM and 4.55 nM, respectively.
Take `CC(C)(O)Cn1ncc2cc(-c3ccc(CN4[C@@H]5CC[C@H]4C[C@@H](N)C5)cc3-c3ccc(C#N)c(F)c3)c(F)cc21` [Example 299, 5′-((3-endo)-amino-8-azabicyclo[3.2.1]octan-8-yl)methyl)-3-fluoro-2′-(6-fluoro-1-(2-hydroxy-2-methylpropyl)-1H-indazol-5-yl)-[1,1′-biphenyl]-4-carbonitrile dihydrochloride]: the IC50 in experiment [5] was 0.43 nM; in experiment [1] (setting [6]), less than 1.37 nM; in experiment [2], 0.949 nM; against human LSD1 protein, 0.2 nM.
On to “2′-(6,7-difluoro-1-(2-hydroxy-2-methylpropyl)-1H-indol-5-yl)-3-fluoro-5′-(2,7-diazaspiro[3.4]octane-6-carbonyl)-[1,1′-biphenyl]-4-carbonitrile [Example 200]”, for which the half-maximal inhibitory concentration (IC50) in experiment [1] (setting [7]) was found to be 2.31 nM; in experiment [3] it was 3.72 nM; in experiment [4], 1.23 nM.
As to `CC(C)(O)Cn1ncc2cc(-c3ccc(CN4CC5CNCC5C4)cc3-c3ccc(C#N)c(F)c3)c(F)cc21` (stereo not drawn) [Example 297, 3-fluoro-2′-(6-fluoro-1-(2-hydroxy-2-methylpropyl)-1H-indazol-5-yl)-5′-((hexahydropyrrolo[3,4-c]pyrrol-2(1H)-yl)methyl)-[1,1′-biphenyl]-4-carbonitrile dihydrochloride], the concentration for half-maximal inhibition (IC50) was 2.68 nM in experiment [5], 8.26 nM in experiment [1] (setting [6]), 3.8 nM in experiment [2] and 0.4 nM on human LSD1 protein (setting [8]).
In the case of `Cc1noc2cc(-c3ccc(C(=O)N4[C@@H]5CC[C@H]4C[C@@H](N)C5)cc3-c3ccc(C#N)c(F)c3)c(F)cc12` [Example 179, 5′-((3-endo)-3-amino-8-azabicyclo[3.2.1]octane-8-carbonyl)-3-fluoro-2′-(5-fluoro-3-methylbenzo[d]isoxazol-6-yl)-[1,1′-biphenyl]-4-carbonitrile], the half-maximal inhibitory concentration (IC50) was 1.05 nM in experiment [1] (setting [7]), 1.52 nM in experiment [3] and 3.36 nM in experiment [4].
For `Cc1ccc(-c2ccc(CN3[C@H]4CC[C@@H]3[C@H](N)C4)cc2-c2ccc([N+](=O)[O-])cc2)cc1` (single isomer, unassigned) [Example 296, dihydrochloride], the half-maximal inhibitory concentration (IC50) is 5.83 nM in experiment [3] and 37.6 nM in experiment [4].
Regarding `CC(C)(O)Cn1ncc2cc(-c3ccc(CN4CCC5(CNC5)C4)cc3-c3ccc(C#N)c(F)c3)c(F)cc21` [Example 300, 5′-((2,6-diazaspiro[3.4]octan-6-yl)methyl)-3-fluoro-2′-(6-fluoro-1-(2-hydroxy-2-methylpropyl)-1H-indazol-5-yl)-[1,1′-biphenyl]-4-carbonitrile dihydrochloride], the half-inhibitory concentration (IC50) in experiment [5] is 0.6 nM; in experiment [1] (setting [6]), 0.7 nM; in experiment [2], 1.53 nM; at human LSD1 protein (setting [8]), 0.23 nM.
On to `Cc1c(F)c(-c2ccc(C(=O)N3[C@@H]4CC[C@H]3[C@@H](N)C4)cc2-c2ccc(C#N)c(F)c2)cc2nnn(CC3(O)CCC3)c12` (single isomer, unassigned) [Example 270], for which the values for the IC50 in experiment [1] (setting [7]), in experiment [3] and in experiment [4] were 0.37 nM, 0.26 nM and 0.18 nM, respectively.
Regarding `CC(C)(O)Cn1ncc2cc(-c3ccc(CN4CC5(CCCNC5)C4)cc3-c3ccc(C#N)c(F)c3)c(F)cc21` [Example 298, 5′-((2,6-diazaspiro[3.5]nonan-2-yl)methyl)-3-fluoro-2′-(6-fluoro-1-(2-hydroxy-2-methylpropyl)-1H-indazol-5-yl)-[1,1′-biphenyl]-4-carbonitrile dihydrochloride], the IC50 in experiment [5] was 0.46 nM; in experiment [1] (setting [6]), 1 nM; in experiment [2], 1.72 nM; at human LSD1 protein (setting [8]) it was 0.2 nM.
For the compound `CC(C)(O)Cn1nnc2cc(-c3ccc(C(=O)N4[C@@H]5CC[C@H]4C[C@@H](N)C5)cc3-c3ccc(C#N)c(F)c3)c(F)c(Cl)c21` [Example 211, 5′-((3-endo)-3-amino-8-azabicyclo[3.2.1]octane-8-carbonyl)-2′-(7-chloro-6-fluoro-1-(2-hydroxy-2-methylpropyl)-1H-benzo[d][1,2,3]triazol-5-yl)-3-fluoro-[1,1′-biphenyl]-4-carbonitrile], the IC50 in experiment [5] amounted to 1.41 nM; in experiment [1] (setting [9]), 1.4 nM; in experiment [2], 0.79 nM.
On the same counts, the results for `CCC(O)(CC)Cn1nnc2cc(-c3ccc(CN4C5CCC4C(N)C5)cc3-c3ccc(C#N)c(F)c3)c(F)c(Br)c21` [Example 295, 5′-(((1S,2S,4R)-rel-2-amino-7-azabicyclo[2.2.1]heptan-7-yl)methyl)-2′-(7-bromo-1-(2-ethyl-2-hydroxybutyl)-6-fluoro-1H-benzo[d][1,2,3]triazol-5-yl)-3-fluoro-[1,1′-biphenyl]-4-carbonitrile-isomer-X dihydrochloride] are 0.049 nM, 0.24 nM and 0.066 nM.
As to `Cc1ccc(-c2ccc(CN3C4CCC3C(N)C4)cc2-c2ccc(C#N)c(F)c2)c(F)c1` [Example 283, 5′-(((1S,2S,4R)-rel-2-amino-7-azabicyclo[2.2.1]heptan-7-yl)methyl)-2″,3-difluoro-4″-methyl-[1,1′:2′,1″-terphenyl]-4-carbonitrile-isomer-X], the half-maximal inhibitory concentration (IC50) in experiment [5] was 0.79 nM; in experiment [1] (setting [9]), 11.1 nM; in experiment [2], 2.1 nM.
Take `Cn1ccc2cc(-c3ccc(C(=O)N4[C@@H]5CC[C@H]4C[C@H](N)C5)cc3-c3ccc(C#N)c(F)c3)ccc21` [Example 18]: the IC50 was found to be 3.55 nM in experiment [5], 8.13 nM in experiment [1] (setting [9]) and 4.73 nM in experiment [2].
In the case of `COc1c(F)c(-c2ccc(C(=O)N3[C@@H]4CC[C@H]3C[C@@H](N)C4)cc2-c2ccc(C#N)c(F)c2)cc2cnn(CC(C)(C)O)c12` [Example 186, 5′-((3-endo)-3-amino-8-azabicyclo[3.2.1]octane-8-carbonyl)-3-fluoro-2′-(6-fluoro-1-(2-hydroxy-2-methylpropyl)-7-methoxy-1H-indazol-5-yl)-[1,1′-biphenyl]-4-carbonitrile], the IC50 was found to be 5.3 nM in experiment [5], 3.21 nM in experiment [1] (setting [9]) and 5.95 nM in experiment [2].
As to `CCC(O)(CC)Cn1nnc2cc(-c3ccc(C(=O)N4[C@@H]5CC[C@H]4C[C@@H](N)C5)cc3-c3ccc(C#N)c(F)c3)c(F)c(Cl)c21` [Example 220, 5′-((3-endo)-3-amino-8-azabicyclo[3.2.1]octane-8-carbonyl)-2′-(7-chloro-1-(2-ethyl-2-hydroxybutyl)-6-fluoro-1H-benzo[d][1,2,3]triazol-5-yl)-3-fluoro-[1,1′-biphenyl]-4-carbonitrile], the figures for the half-inhibitory concentration (IC50) in experiment [5], in experiment [1] (setting [9]) and in experiment [2] were 1.09 nM, 1.81 nM and 1.03 nM, respectively.

One may read the IC50 as the concentration that gives 50% inhibition.

The values above are taken from patent US11479563B2, “Biphenyl compound or salt thereof” (TAIHO PHARMACEUTICAL CO., LTD., priority 2017, dated 2022).
